Test results published in patent US8236510B2, “Protein showing enhanced expression in cancer cells” (Agensys, Inc., priority 1999, dated 2012).
“Also recorded” adds a separate entry of the source. Ends that are not written are not given here.

Columns and labels:
[1] = tested on: ERK phosphorylation in PC3-101P3A11 cells; test: ERK phosphorylation in PC3-101P3A11 and PC3-neo cells (anti-Phospho-ERK Western blot); assay type: cell-based, human; details: for inhibition of ERK phosphorylation and activation: PC3-101P3A11 and 3T3-101P3A11 cells, FBS
Method: Using Western blotting and other techniques, the ability of 101P3A11 to regulate these pathways is confirmed. Cells expressing or lacking 101P3A11 are either left untreated or stimulated with cytokines, androgen and anti-integrin antibodies. Cell lysates were analyzed using anti-phospho-specific antibodies (Cell Signaling, Santa Cruz Biotechnology) in order to detect phosphorylation and regulation of ERK, p38, AKT, PI3K, PLC and other signaling molecules. […] In the experiment, data shown in FIG. 26, control 3T3-neo and 3T3-101P3A11 cells were either treated with 0.5 or 10% FBS and whole cell lysates were analyzed by anti-phosphotyrosine Western blotting.
In this experiment, control PC3-neo cells and PC3-101P3A11 cells were left untreated (0.1% FBS) or were stimulated with 10% FBS, lipophosphatidic acid (LPA), gastrin releasing peptide (GRP), leukotriene (LKB4) or platelet activating factor (PAF). The cells were lysed and analyzed by Western blotting using anti-Phospho-ERK (FIG. 27A) or anti-ERK (FIG. 27B) mAb. […] In order to delineate the signaling pathway by which 101P3A11 mediates ERK phosphorylation in cancer cells, it was confirmed which of the two pathway inhibitors: MEK inhibitor PD98059 or the p38 inhibitor SB203580 regulate 101P3A11 mediated ERK phosphorylation (FIG. 28). […] Cells were lysed and analyzed by Western blotting using anti-Phospho-ERK or anti-ERK mAb. Treatment with 10% FBS or with GRP induced the phosphorylation of ERK in PC3-101P3A11 but not in control PC3-neo cells. 101P3A11-mediated ERK phosphorylation was inhibited by the MEK-1 inhibitor PD98059 but not the p38 inhibitor SB203580 or genistein.
Results in FIGS. 26-28 indicate that 101P3A11 regulates the activity of kinases, including ERK, and phosphatases. In order to confirm the association of 101P3A11 with phosphatase activity, the effect of the protein phosphatase inhibitor sodium orthovanadate on 101P3A11 mediated ERK phosphorylation was determined (FIG. 29). PC3-neo and PC3-101P3A11 cells were grown in media alone or in the presence of sodium orthovanadate (Na3VO4), and were stimulated with 0.1% or 10% FBS. Cells were lysed and analyzed by Western blotting using anti-Phospho-ERK or anti-ERK mAb. […] Results in FIG. 29 confirm the contribution of protein phosphatases to 101P3A11 mediated signaling.
In order to determine whether 101P3A11 signaling results in the activation of EGFR, we compared the effect of the EGFR inhibitor, AG1517, on EGFR- and 101P3A11-mediated ERK phosphorylation (FIG. 30). In FIG. 30, PC3-neo and PC3-101P3A11 cells were grown in media alone (0.1% FBS) or in the presence of AG1517. The cells were stimulated with 0.1% or 10% FBS, GRP or EGF, lysed and analyzed by Western blotting using anti-Phospho-ERK or anti-ERK mAb. Treatment with 10% FBS, GRP and EGF induced ERK phosphorylation in PC3-101P3A11 cells. […] Data in FIG. 30 indicate that some cross talk occurred between 101P3A11 and EGFR signaling pathways.
(§1) Since adenylate cyclase activity modulates intracellular levels of cAMP and induce downstream signaling events such as activation of protein kinase A, calcium and ERK MAPK signaling (Pierce K. L., et al, Oncogene. 2001, 20: 1532), we determined that PTX, an inhibitor of adenylate cyclase signaling, prevents 101P3A11-mediated ERK phosphorylation along with inhibiting cAMP accumulation (FIG. 33 and FIG. 34). PC3-neo and PC3-101P3A11 cells were grown overnight in 0.1% FBS in media alone or in the presence of pertussis toxin (PTX). Cells were stimulated with 0.1% or 10% FBS (FIG. 33) or 10% FBS, EGF or GRP (FIG. 34). Cells were lysed and analyzed by Western blotting using anti-Phospho-ERK mAb. Expression of 101P3A11 mediated ERK phosphorylation by 10% FBS in PC3 cells, which was inhibited by PTX (FIG. 33 and FIG. 34).
GPCR transmit their signal by activating trimeric G proteins. […]

3T3-101P3A11 cells = test: Proliferation of 3T3 and 3T3-101P3A11 cells (Alamar blue); assay type: cell-based; details: for effect on proliferation: control 3T3 cells
PC3-101P3A11 cells = test: Proliferation of PC3-101P3A11 and PC3-neo cells; assay type: cell-based, human; details: PC3-101P3A11 cells grown in 5% FBS
Method: as §1
GPCR transmit their signal by activating trimeric G proteins. Once GPCRs are activated, the associated Ga subunit binds GTP, dissociates from the receptor and participates in downstream signaling events (Schild, D., and Restrepo, D. Physiol Rev. 1998, 78:429-66). In order to determine that inhibition of Ga subunits has an effect on 101P3A11 mediated cell growth, the effect of two Ga inhibitors on the proliferation of 3T3-101P3A11 cells was investigated. Control 3T3 and 3T3-101P3A11 cells were grown in the presence or absence of suramin or its derivative NF 449 (Sigma). Cells were analyzed for proliferation 72 hours later (FIG. 35). The experiment was performed in triplicate. […] This response was 101P3A11 specific as suramin and NF449 had no effect on the proliferation of control 3T3 cells. Similarly, inhibition of G protein activation by suramin and NF449 in PC3 cells inhibits the proliferation of PC3-101P3A11 cells grown in 5% FBS (Figure M4). […] This ERK phosohorylation and activation was inhibited by suramin and NF449 in PC3-101P3A11 and 3T3-101P3A11 cells. ERK phosphorylation was inhibited in a dose dependent manner in PC3-101P3A11 cells treated with suramin. […]

LAPC-9 cells = test: Androgen regulation in LAPC-9 cells (Northern blot); assay type: cell-based; details: charcoal-stripped medium
Method: In order to assay for androgen regulation of 101P3A11 expression, LAPC-9 cells were grown in charcoal-stripped medium and stimulated with the synthetic androgen mibolerone, for either 14 or 24 hours (FIG. 15A, FIG. 15B, and FIG. 15C). Northern blots with 10 μg of total RNA/lane were probed with the 101P3A11 sequences (FIG. 15A). A picture of the ethidium-bromide staining of the RNA gel is also presented (FIG. 15C). […] The experimental samples were confirmed by testing for the expression of the androgen-regulated prostate cancer gene PSA (FIG. 15B).

3T3-101P3A11 tumors = test: Subcutaneous growth of 3T3-101P3A11 tumors in SCID mice; assay type: in vivo
Method: (2) Regulated expression under control of an inducible vector system, such as ecdysone, tet, etc., can be used provided such promoters are compatible with the host cell systems. […] FIG. 21 compares subcutaneous growth of control 3T3-neo and 3T3-101P3A11 cells. One million cells stably expressing neo or 101P3A11 were injected subcutaneously in SCID mice along with matrigel. Tumor volume was evaluated by caliper measurements. […] Additionally, SCID mice were implanted with the same 3T3-101P3A11 cells orthotopically in the prostate to determine if 101P3A11 has an effect on local growth in the prostate or on the ability of the cells to metastasize, specifically to lungs or lymph nodes. […] In an analogous manner, cells can be implanted orthotopically in the bladder, colon or kidney. (Saffran, D., et al., PNAS 10:1073-1078; Fu, X., et al., Int. J. Cancer, 1991, 49: p. 938-939; Chang, S., et al., Anticancer Res., 1997, 17: p. 3239-3242; Peralta, E. A., et al., J. Urol., 1999, 162: p. 1806-1811). The tumor enhancing effect of 101P3A11 was also observed when 101P3A11 is expressed in prostate cancer cells such as PC3 and introduced into the prostate of SCID mice (Figure M11). A 2.5 fold increase in tumor weight is observed in tumors expressing 101P3A11 relative to control cells.
Furthermore, these assays is useful to confirm the anti-101P3A11 inhibitory effects of candidate therapeutic compositions, such as for example, 101P3A11 antibodies or intrabodies, and 101P3A11 antisense molecules or ribozymes, or 101P3A11 directed small molecules. In FIG. 22, we depict the effect of a small molecule, pertussis toxin (PTX) on tumor formation by 3T3-101P3A11 cells. In this experiment, SCID mice were injected with 3T3-101P3A11 alone or in conjunction with PTX. Each mouse was given 5 doses of PTX at 3-4 days interval. Tumor volume was evaluated by caliper measurements. […] Similarly, treatment with the G-protein inhibitor suramin inhibits the growth of 3T3-101P3A11 tumors (Figure M13).

[2] = 101P3A11 expressing 3T3 cells, Alamar blue after 72 hours

Molecule: platelet activating factor [PAF]
- ERK phosphorylation by GPCR ligands ([1]; PC3-101P3A11 cells): significant ERK phosphorylation

Molecule: [Na+].[Na+].[Na+].[O]=[V]([O-])([O-])[O-] [Na3VO4, sodium orthovanadate]
- increase in ERK phosphorylation ([1]; PC3-101P3A11 cells): 4.5 fold
- increase in ERK phosphorylation ([1]; PC3-neo cells): two-fold increase

Molecule: lipophosphatidic acid [LPA]
- ERK phosphorylation by GPCR ligands ([1]; PC3-101P3A11 cells): significant ERK phosphorylation

Molecule: O=C(Nc1cc(C(=O)Nc2ccc(S(=O)(=O)O)cc2S(=O)(=O)O)cc(C(=O)Nc2ccc(S(=O)(=O)O)cc2S(=O)(=O)O)c1)Nc1cc(C(=O)Nc2ccc(S(=O)(=O)O)cc2S(=O)(=O)O)cc(C(=O)Nc2ccc(S(=O)(=O)O)cc2S(=O)(=O)O)c1 [NF449]
- inhibition of proliferation (3T3-101P3A11 cells; 3T3-101P3A11 cells, 72 hours): 80%
- inhibition of proliferation (3T3-101P3A11 cells; [2]): inhibited
- effect on proliferation (3T3-101P3A11 cells; 72 hours): no effect
- inhibition of proliferation (PC3-101P3A11 cells): inhibits
- inhibition of ERK phosphorylation and activation [1]: inhibited

Molecule: COc1cc2ncnc(Nc3cccc(Br)c3)c2cc1OC [AG1517]
- inhibition of 101P3A11 mediated ERK phosphorylation ([1]; PC3-101P3A11 cells treated with 10% FBS): partially inhibits
- inhibition of EGF-mediated ERK phosphorylation ([1]; control and 101P3A11-expressing PC3 cells, EGF): completely inhibited; also recorded: inhibits

Molecule: gastrin releasing peptide (VPLPAGGGTVLTKMYPRGNHWAVGHLM; ends and bridges not checked; UniProt P07492 24-50, looked up) [GRP, GPCR ligand]
- ERK phosphorylation by GPCR ligands ([1]; PC3-101P3A11 cells): significant ERK phosphorylation

Molecule: COc1cccc(-c2cc(=O)c3ccccc3o2)c1N [PD98059]
- inhibition of 101P3A11-mediated ERK phosphorylation ([1]; PC3-101P3A11 cells stimulated with FBS or GRP): inhibited

Molecule: C[C@@H]1CC2=CC(=O)CC[C@@H]2[C@H]2CC[C@@]3(C)[C@@H](CC[C@]3(C)O)[C@@H]21 [mibolerone]
- expression of PSA (LAPC-9 cells; 14 and 24 hours): induced
- expression of 101P3A11 (LAPC-9 cells; 14 or 24 hours): not regulated

Molecule: CCCCC/C=C\C[C@@H](O)/C=C/C=C/C=C\[C@@H](O)CCCC(=O)O [LKB4, leukotriene]
- ERK phosphorylation by GPCR ligands ([1]; PC3-101P3A11 cells): more modest level of ERK phosphorylation

Molecule: Cc1ccc(C(=O)Nc2ccc(S(=O)(=O)O)c3cc(S(=O)(=O)O)cc(S(=O)(=O)O)c23)cc1NC(=O)c1cccc(NC(=O)Nc2cccc(C(=O)Nc3cc(C(=O)Nc4ccc(S(=O)(=O)O)c5cc(S(=O)(=O)O)cc(S(=O)(=O)O)c45)ccc3C)c2)c1 [suramin]
- inhibition of proliferation (3T3-101P3A11 cells; 3T3-101P3A11 cells, 72 hours): 60%
- inhibition of proliferation (3T3-101P3A11 cells; [2]): inhibited
- effect on proliferation (3T3-101P3A11 cells; 72 hours): no effect
- inhibition of growth of 3T3-101P3A11 tumors (3T3-101P3A11 tumors): inhibits
- inhibition of proliferation (PC3-101P3A11 cells): inhibits
- inhibition of ERK phosphorylation and activation [1]: inhibited
